Values quoted from earlier work in US20220023398A1, “COMPOSITIONS AND METHODS FOR TREATING THYROID DISEASE” (Script Essentials, LLC, priority 2015, published 2022).

Tests used:
[1] = supplementation, even in selenium sufficient patients
[2] = after oral supplementation
[3] = participants with low T3, normal T4

SMILES	thyroid peroxidase (TPO) antibody levels in the blood [1]	TSH [2, 3]	reverse T3 (rT3) [2, 3]	levels of T3 ([2]; participants with low T3, normal T4, mild to moderate zinc deficiency)
[Se] [selenium]	reduced	–	–	–
O=S(=O)([O-])[O-].[Zn+2] [zinc sulfate]	–	normalized	decreased	normalized
